Tests used:
[1] = tested on: Concanavalin A (ConA)-induced liver injury; test: Concanavalin A (ConA)-induced liver injury in mice, serum SGOT; format: in vivo, C57BL/6 mice; conditions: Mus musculus, ip, ConA 15 mg/kg i.v., 17 hours, read-out: SGOT (% decrease); for inhibition in vivo at 50 mg/kg: 50 mg/kg i.p.
Experimental: The following protocol was used for the Concanavalin A (ConA)-induced liver injury in mice. C57BL/6 mice were used. A solution of ConA (Sigma)in PBS was prepared at a concentration of 1.5 mg/ml. The mice were administered, i.p., with […] of a 10% DMSO solution containing varying amounts (adjusted to give 25 mg/kg to 50 mg/kg of compound) of the representative compounds of interest. Fifteen minutes later, the mice were treated via the tail vein with 15 mg/kg of ConA in PBS along with […] of 10% DMSO solution.
The mice were sacrificed after 17 hours and the blood collected into small conical tubes. The tubes were centrifuged and the serum collected and assayed for serum glutamic oxaloacetic transaminase (SGOT) (Sigma GOT kit). The high level enzyme standard (Sigma) was used to make the standard curve, as 100(undiluted), 50, 25, 12.5 and 0 S-F units/mi. Samples were diluted 1:5, 1:25 and 1:125 by adding 25 μl of serum to 100 μl of H2 O and serially diluting 25 μl into 100 μl two more times. Then 100 μl of the Sigma substrate were added to each tube along with 20 μl of each diluted sample and enzyme standard. The tube was incubated in a 37° C. bath with gentle shaking for 1 hour. To that was added […] of colorizing reagent and the tube was left to stand for 30 minutes. Then 500 μl of 0.8N NaOH solution were added, the tubes were capped and inverted to mix thoroughly. A 150 μl aliquot of each sample and 150 μl of the standard were added to wells of a 96-well plate and color formation was monitored at 490 nm. The amounts of SGOT were calculated using a standard curve, converted to Sigma-Frankel units/ml.

Neutrophil migration = test: Immune complex (BSA/anti-BSA) induced neutrophil migration into mouse skin, myeloperoxidase (MPO) assay; format: in vivo, C57BL/6 mouse; conditions: for inhibition in vivo at 12.5 mg/site: Mus musculus, Neutrophil, 12.5 mg of drug/site, i.d., 4 hours
Experimental: Neutrophil migration and infiltration into tissue spaces and the effect thereon of the compounds of the instant compounds can be tested. For example, immune complexes can be developed at a subcutaneous or intradermal site to draw neutrophils and the effect of the instant compounds on neutrophil migration can be assessed. A protocol is as follows. Mice are injected IV with bovine serum albumin (BSA). Then the mice are injected intradermally with antibody to BSA. For experimental animals, the test substance is administered concurrently intradermally or subcutaneously at the site of antibody deposition. After about four hours, the animal is sacrificed, the skin at the injection site is removed and then treated appropriately, such as assaying for myeloperoxidase, to determine the extent of neutrophil migration to the injection site.
An i.v. injection of 100 μl of BSA at 10 mg/ml in saline was followed by a 25 μl injection of anti-BSA i.d. on the back side of a pre-shaven C57BL/6 mouse. At time 0, along with the BSA and anti-BSA, the test compound or vehicle was administered i.d. at the site of the antibody injection in a volume of 25 μl (for example, 0.5 mg/μl solution). Four hours post injection, the skin was removed and a myeloperoxidase (MPO) assay performed (Mulligan et al., J. Imm. 151(10): 5666-5674, 1993).
Briefly, the skin sample was placed in a 17×100 mm test tube containing 2 ml of ice cold buffer (PBS, pH 7.4). The sample was ground for 30 seconds and placed on ice. The sample was vortexed for 10 seconds and then sonicated for three minutes in iced water. The sample was frozen in dry ice for 30 minutes. The sample then was thawed rapidly in a water bath for 10 minutes. An aliquot of 1.5 ml was removed and placed in a microfuge tube. The sample was spun at high speed in a cold room for 15 minutes. The sample then was titrated across the wells in a microtiter plate with the first well containing a 1:3 dilution of sample, for example, 50 μl of sample and 150 μl of buffer. Substrate and hydrogen peroxide were added to each well. Following a suitable incubation period, sodium azide was added to the wells and the absorbance monitored in a spectrophotometer at 460 nm. […]

ELAM = test: ELISA for cell surface molecules: inhibition of ELAM expression on IL-1β stimulated HUVEC's; format: cell-based; conditions: Homo sapiens; for inhibition at 3 µg/mL: @ 3 μg/ml; for inhibition at 10 µg/mL: @ 10 μg/mL; for inhibition at 1 µg/mL: @ 1 μg/mL
Experimental: (§1) The following were used in an ELISA for cell surface molecules: Costar 96-well TC plates, 2% gelatin, 1% BSA-Dulbecco's PBS w/CaMg^++, IL-1β, primary antibody e.g., 7A9 for ELAM (EP 505749) secondary biotinylated goat anti-mouse IgG/IgM, streptavidin-peroxidase, OPD substrate tablets and 30% hydrogen peroxide.
(§2) To begin, 96-well plates were coated with 2% gelatin (1 hour). The excess gelatin was aspirated from the wells. HUVEC's were seeded at 20,000 cells/well in a 200 μl volume.
(§3) Prior to assay, the test compounds were dissolved in DMSO at a stock concentration of 3 mg/ml. The stock solutions were set at room temperature and observed to see if dissolution was complete. When monolayers reached confluence (24-28 hours after seeding) the test compounds were added to the wells at final concentrations of 10 μg/ml, 3 μg/ml and 1 μg/ml. The plates were incubated for 1 hour at 37° C. Then, IL-1β at a final concentration of 1 μg/ml was added and the plates incubated for 4 hours at 37° C. The supernatant was removed from the plates by flicking into a sink. The wells were washed 3× with 1% BSA-Dulbecco's PBS.
(§4) Primary antibody (7A9 for ELAM or a suitable antibody for VCAM or ICAM) at a concentration of 2.5 μg/ml in a 50 μl volume was added to each well. The plates were incubated at 4° C. for 45 minutes to 1 hour. The wells were washed 3× with 1% BSA Dulbecco's PBS. Secondary antibody (biotinylated goat anti-mouse IgG-IgM, commercially available) at 50 μl/well at a final dilution of 1:1,000 was added to the well and the plates were incubated for 45 minutes to 1 hour at 4° C. The wells were washed 3× with 1% BSA-Dulbecco's PBS.
(§5) Streptavidin-peroxidase at 50 μl/well with a final dilution of 1:3,000 was added to each well and the plates were incubated at 4° C. for 30 minutes. Again the plates were washed 3× with 1% BSA-Dulbecco's PBS.
(§6) Substrate solution (OPD tablets, citric acid buffer and hydrogen peroxide solution) was prepared and added at 100 μl/well. The plates were incubated 15 minutes at room temperature on a plate shaker and the reaction was stopped with 12.5% sulfuric acid. Plates were read for absorbance values at 492 nm.
(§7) The degree of inhibition in expression of ELAM or VCAM by a compound of the instant invention is manifest as a decrease in specific primary antibody binding. In the following table the IC50 values are provided using a representative sampling of compounds of the instant invention.

VCAM = test: ELISA for cell surface molecules: inhibition of VCAM expression on IL-1β stimulated HUVEC's; format: cell-based; conditions: Homo sapiens; for inhibition at 3 µg/mL: @ 3 μg/ml; for inhibition at 10 µg/mL: @ 10 μg/mL; for inhibition at 1 µg/mL: @ 1 μg/mL
Experimental: as §1, §2, §3, §4, §5, §6, §7

[2] = tested on: Concanavalin A (ConA)-induced liver injury; test: Concanavalin A (ConA)-induced liver injury in mice, serum SGOT; format: in vivo, C57BL/6 mice; conditions: Mus musculus, ip; 20 mg/kg i.p.; ConA 15 mg/kg i.v., 17 hours; read-out: SGOT (% decrease)

| SMILES | inhibition in vivo at 50 mg/kg [1] | inhibition in vivo at 12.5 mg/site (Neutrophil migration) | inhibition at 3 µg/mL (VCAM) | other results |
| --- | --- | --- | --- | --- |
| COc1c(C)cnc(CSc2nnc(C)o2)c1C [Compound 16, 2-(3,5-dimethyl-4-methoxy-2-pyridyl)methylthio-5-methyl-1,3,4-oxadiazole] | 85% | – | – | – |
| COc1ccnc2c1CCCCC2Sc1nnc(C)o1 (stereo not drawn) [Compound 19] | 87% | – | – | – |
| COc1c(C)cnc(CSc2nnc(-c3cccs3)o2)c1C [Compound 35] | 45% | – | – | – |
| c1ccc(CSc2nnc(-c3ccccn3)o2)cc1 [Compound 44] | – | – | – | inhibition in vivo at 25 mg/kg ([1]; 25 mg/kg i.p.): 86% |
| c1ccc(CSc2nnc(-c3cccnc3)o2)cc1 [Compound 48] | 51% | – | – | – |
| COc1c(C)cnc(CSc2nnc(-c3ccccc3O)o2)c1C [Compound 60] | 60% | – | – | – |
| COc1c(C)cnc(CSc2nnc(-c3nc(-c4ccccc4)cs3)o2)c1C [Compound 67] | 55% | – | – | – |
| c1ccc(CSc2nnc(-c3nc(-c4ccccc4)cs3)o2)cc1 [Compound 68] | – | – | – | decrease in MPO activity (Neutrophil migration; test compound i.d. at site of antibody injection, 4 hours post injection): 55-60% |
| COc1ccnc2c1CCCCC2Sc1nnc(-c2nc(-c3ccccc3)cs2)o1 (stereo not drawn) [Compound 69] | 30% | – | – | – |
| COc1c(C)cnc(C[S+]([O-])c2nnc(C)o2)c1C (stereo not drawn) [Compound 70, 2-(3,5-dimethyl-4-methoxy-2-pyridyl)methylsulfinyl-5-methyl-1,3,4-oxadiazole] | 82% | 55% | 65% | inhibition at 3 µg/mL (ELAM): 55% |
| Cc1nnc([S+]([O-])Cc2ccccn2)o1 (stereo not drawn) [Compound 71] | – | 40% | 40% | inhibition at 3 µg/mL (ELAM): 30% |
| Cc1nnc([S+]([O-])Cc2ccccc2)o1 (stereo not drawn) [Compound 72] | – | – | 25% | inhibition at 3 µg/mL (ELAM): 15% |
| COc1ccnc2c1CCCCC2[S+]([O-])c1nnc(C)o1 (stereo not drawn) [Compound 73] | – | – | – | inhibition at 10 µg/mL (ELAM): 20%; inhibition at 10 µg/mL (VCAM): 20% |
| Cc1nnc([S+]([O-])Cc2nccn2Cc2ccccc2)o1 (stereo not drawn) [Compound 75] | – | 20% | 100% | inhibition at 3 µg/mL (ELAM): 55% |
| Cc1nnc([S+]([O-])Cc2ncn(Cc3ccccc3)c2C)o1 (stereo not drawn) [Compound 76] | – | 20% | – | – |
| CCc1nnc([S+]([O-])Cc2ncc(C)c(OC)c2C)o1 (stereo not drawn) [Compound 79] | – | – | 50% | inhibition at 3 µg/mL (ELAM): 35% |
| CCCc1nnc([S+]([O-])Cc2ncc(C)c(OC)c2C)o1 (stereo not drawn) [Compound 80] | – | – | 70% | inhibition at 3 µg/mL (ELAM): 45% |

| SMILES | inhibition in vivo at 50 mg/kg [1] | inhibition in vivo at 12.5 mg/site (Neutrophil migration) | inhibition at 3 µg/mL (VCAM) | other results |
| --- | --- | --- | --- | --- |
| CCCCc1nnc([S+]([O-])Cc2ncc(C)c(OC)c2C)o1 (stereo not drawn) [Compound 81] | – | – | 20% | – |
| COc1c(C)cnc(C[S+]([O-])c2nnc(-c3ccccc3)o2)c1C (stereo not drawn) [Compound 85] | – | 25% | 100% | – |
| COc1c(C)cnc(C[S+]([O-])c2nnc(-c3cccs3)o2)c1C (stereo not drawn) [Compound 89] | 95% | – | – | inhibition at 1 µg/mL (ELAM): 25%; inhibition at 1 µg/mL (VCAM): 60% |
| [O-][S+](Cc1ccccc1)c1nnc(-c2cccs2)o1 (stereo not drawn) [Compound 91] | – | 40% | – | inhibition at 1 µg/mL (ELAM): 20%; inhibition at 1 µg/mL (VCAM): 20% |
| [O-][S+](Cc1ccccn1)c1nnc(-c2ccncc2)o1 (stereo not drawn) [Compound 92] | – | 60% | 100% | – |
| [O-][S+](Cc1ccccn1)c1nnc(-c2ccccn2)o1 (stereo not drawn) [Compound 96] | – | 70% | – | inhibition at 1 µg/mL (ELAM): 50%; inhibition at 1 µg/mL (VCAM): 50% |
| [O-][S+](Cc1ccccc1)c1nnc(-c2ccccn2)o1 (stereo not drawn) [Compound 97] | – | 80% | – | inhibition at 1 µg/mL (ELAM): 50%; inhibition at 1 µg/mL (VCAM): 55%; inhibition in vivo at 20 mg/kg [2]: 45% |
| [O-][S+](Cc1ccccn1)c1nnc(-c2cccnc2)o1 (stereo not drawn) [Compound 100] | – | 60% | 80% | – |
| [O-][S+](Cc1ccccc1)c1nnc(-c2cccnc2)o1 (stereo not drawn) [Compound 101] | 68% | 50% | – | inhibition at 10 µg/mL (ELAM): 75%; inhibition at 10 µg/mL (VCAM): 40% |
| [O-][S+](Cc1ccccn1)c1nnc(C23CC4CC(CC(C4)C2)C3)o1 (stereo not drawn) [Compound 102] | – | 25% | 30% | – |
| [O-][S+](Cc1ccccc1)c1nnc(-c2cc(-c3ccccc3)nc3ccccc23)o1 (stereo not drawn) [Compound 106] | – | – | 10% | – |
| COc1c(C)cnc(C[S+]([O-])c2nnc(-c3cccn3C)o2)c1C (stereo not drawn) [Compound 112] | – | – | – | inhibition at 1 µg/mL (ELAM): 25%; inhibition at 1 µg/mL (VCAM): 65% |
| COc1c(C)cnc(C[S+]([O-])c2nnc(-c3ccccc3O)o2)c1C (stereo not drawn) [Compound 113] | 80% | 20% | – | inhibition at 1 µg/mL (ELAM): 30%; inhibition at 1 µg/mL (VCAM): 50% |
| [O-][S+](Cc1ccccc1)c1nnc(-c2ccccc2O)o1 (stereo not drawn) [Compound 114] | – | – | – | inhibition at 1 µg/mL (ELAM): 20%; inhibition at 1 µg/mL (VCAM): 25% |
| COc1c(C)cnc(C[S+]([O-])c2nnc(-c3cccc(C(F)(F)F)c3)o2)c1C (stereo not drawn) [Compound 116] | – | – | 25% | – |
| COc1c(C)cnc(C[S+]([O-])c2nnc(-c3ccc(C(F)(F)F)cc3)o2)c1C (stereo not drawn) [Compound 117] | – | – | 15% | – |
| [O-][S+](Cc1ccccc1)c1nnc(-c2nc(-c3ccccc3)cs2)o1 (stereo not drawn) [Compound 121] | – | – | 50% | – |

— patent US5670526A, “1,3,4-oxadiazoles” (Otsuka Pharmaceutical Co., Ltd., priority 1995, dated 1997)
